Reference: the OPERA property sets (Mansouri et al. 2018)

SMILES | logP
CC(=O)Oc1ccc(C(C)=O)cc1 | 1.29
CC(=O)NC(C)(C)C(N)=O | -0.87
C=CCCC(C)=O | 1.02
CCCCNC(=O)NS(=O)(=O)c1ccc(Cl)cc1 | 2.81
Cc1ccc(C)c(O)c1 | 2.33
CN(C)N=Nc1cccc(Cl)c1 | 3.44
COc1cc(Cl)cc(Cl)c1 | 3.8
CCC1COC(Cn2cncn2)(c2ccc(Cl)cc2Cl)O1 (stereo not given) | 3.1
CC1CCCCC1 | 3.61
Cn1c([N+](=O)[O-])cnc1-c1ccc(C(N)=O)cc1 | 0.98
CN(C)N=Nc1ccc(C(N)=O)cc1 | 1.2
CCOCCOCC | 0.66
O=[N+]([O-])c1cccc2cccnc12 | 1.4
C[C@]12C[C@H](O)[C@H]3[C@@H](CCC4=CC(=O)CC[C@@]43C)[C@@H]1CC[C@@H]2C(=O)CO | 1.94
O=C(O)c1cccc(Cl)c1 | 2.68
CCOC(=O)C(=Cc1ccccc1OC)C(C)=O | 2.39
Nc1ccc(Cl)nn1 | 0.35
O=C(O)COc1cccc(C(F)(F)F)c1 | 2.36
S=C1CCCO1 | 0.6
CCOc1ccccc1-c1nc(N)nc(N)n1 | 1.03
NC(=O)c1ccc(F)cc1 | 0.91
NC(Cc1ccccc1)Cc1ccccc1 | 3.35
c1ccn2cccc2c1 | 2.49
CN(C)C(=O)c1ccccc1 | 0.62

SMILES | logP
COP(=S)(OC)Oc1ccc([N+](=O)[O-])c(Cl)c1 | 3.45
COc1ccc(NC=O)cc1 | 1.03
O=[N+]([O-])c1ccc(Nc2ccccc2)cc1 | 3.74
CNc1ccc([N+](=O)[O-])cc1 | 2.04
CCCC(=O)OCC1CCC(n2cnc3c(=O)[nH]cnc32)O1 (stereo not given) | 0.11
COc1ccc(C(c2ccc(OC)cc2)C(C)[N+](=O)[O-])cc1 (stereo not given) | 3.87
O=C(O)CCCCN1C(=O)C=CC1=O | 0.6
COc1cccc(C=C(C(N)=O)C(N)=O)c1 | 0.01
CCN(CC)CCNC(=O)c1cc(F)c(N)cc1OC | 2.28
CC(=O)Oc1ccccc1C(=O)O | 1.19
O=C1CN=C(c2ccccc2C(F)(F)F)c2ccccc2N1 | 2.47
CCOP(=S)(OCC)Oc1cc(C)nc(N(CC)CC)n1 | 4.85
ClCCl | 1.25
CCO[Si](OCC)(OCC)c1ccccc1 | 2.99
CNC(=O)Oc1cc(C)c(Cl)cc1Cl | 3
NNC(=O)c1ccnc(F)c1 | -0.11
CON(C)C(=O)Nc1cccc([N+](=O)[O-])c1 | 1.64
CN | -0.57
O=c1[nH]cnc2ccccc12 | 0.77
COC(=O)C(CC(C)C)NC(C)=O (stereo not given) | 0.84
C=CCOc1noc2c1CNCC2 | 0.56
CC(=O)C(=Cc1ccccc1C)C(C)=O | 1.98
O=[N+]([O-])c1ccccc1SSc1ccccc1[N+](=O)[O-] | 3.37
CN(N=O)C(=O)Nc1ccccc1 | 1.72

SMILES | logP
CCCn1cnc([N+](=O)[O-])n1 | 0.3
O=C(O)CCc1ccccc1 | 1.84
N#Cc1ccc(C#N)cc1 | 0.93
CC(C)NNC(=O)COc1ccc(Cl)cc1 | 2.02
Cc1cnnc2cc(Cl)ccc12 | 1.98
O=C(Oc1ccccc1)n1c(=O)[nH]cc(F)c1=O | 1.73
CC(C)CCOC(=O)c1cc(O)c(O)c(O)c1 | 2.8
CC(=O)c1ccccc1[N+](=O)[O-] | 1.28
Nc1ccn(C2CC(O)C(CO)O2)c(=O)n1 (stereo not given) | -1.77
CCCC(N)C(=O)O (stereo not given) | -2.11
Cc1ccc2cccnc2c1 | 2.47
Nc1cccc([N+](=O)[O-])c1 | 1.37
NC(=O)N(CCCCCCN(N=O)C(N)=O)N=O | 0.58
CCc1ccccc1O | 2.47
COc1cc(S(C)=O)ccc1-c1nc2nnccc2[nH]1 (stereo not given) | 0.23
c1ccc2nnccc2c1 | 0.93
SC1=NCCCN1 | -0.68
N#Cc1ccccc1N | 1.4
NC(Cc1c[nH]c2cccc(F)c12)C(=O)O (stereo not given) | -1.07
CON(C)C(=O)Nc1ccc(OCCCCOc2ccccc2)cc1 | 3.57
O=[N+]([O-])c1ccc2[nH]ccc2c1 | 2.53
N#Cc1ccccc1 | 1.56
CC(=O)c1ccc(NC=O)cc1 | 0.94
NC(=O)C=Cc1ccccc1 | 1.43

SMILES | logP
O=C1CN=C(c2ccc(F)cc2)c2cc(Cl)ccc2N1 | 2.9
O=C(O)Cc1cccc(F)c1 | 1.65
CCSc1ccccc1 | 3.2
O=P(c1ccccc1)(c1ccccc1)c1ccccc1 | 2.83
CC(=O)c1ccc(C(C)=O)cc1 | 1.34
COC(=O)c1cc(Oc2ccc(Cl)cc2Cl)ccc1[N+](=O)[O-] | 4.48
CC(C)SC(C)C | 2.84
N[C@@H](CS)C(=O)O | -2.49
c1cc2ccc3ccc4ccc5cccc6c(c1)c2c3c4c56 | 6.63
CN(C)C(N(C)C)=S(I)c1ccc(F)cc1 (stereo not given) | -0.58
Cc1ccc2cccc(O)c2n1 | 2.33
CCOc1cccnc1 | 1.44
c1ccc2ncccc2c1 | 2.03
COc1ccc(N(CCCC(=O)O)C(=O)c2ccc(Cl)cc2)cc1 | 2.7
c1ccc(Cn2nccn2)cc1 | 1.56
O=C(O)c1cccc(Oc2ccccc2)c1 | 3.91
CNC(=O)Oc1cc(Cl)ccc1Cl | 2.44
FC(F)(Cl)C(F)(Cl)Cl | 3.16
COCC(=O)Nc1c(I)c(C(=O)NCC(O)CO)c(I)c(C(=O)N(C)CC(O)CO)c1I (stereo not given) | -2.05
NNC(=O)c1ccnc([N+](=O)[O-])c1 | -0.76
c1ccc(-c2cc(-c3ccccc3)c(NCCN3CCOCC3)nn2)cc1 | 3.38
O=S1(=O)NC(C(F)(F)F)=Nc2cc(Cl)ccc21 | 1.65
O=C1CCCCCCCCCCC1 | 4.1
CCOc1ccc(CC(=O)O)cc1 | 1.95

SMILES | logP
CCC(CC)C(=O)NC(N)=O | 0.91
CC1(C)S[C@@H]2[C@H](NC(=O)C(C(=O)Oc3ccc4c(c3)CCC4)c3ccccc3)C(=O)N2[C@H]1C(=O)O (stereo not given in full) | 3.77
COP(=S)(NC(C)C)Oc1ccc(Cl)cc1Cl (stereo not given) | 4.3
ClC(Cl)=C(Cl)Cl | 3.4
O=C(O)CCc1ccc(O)cc1 | 1.16
Cc1ccc2[nH]c(=O)[nH]c(=O)c2c1 | 0.55
CN(C)CCc1cccnc1 | 0.82
N#Cc1cccs1 | 1.27
c1cnn(C23CC4CC(CC(C4)C2)C3)c1 | 3.05
COc1cccc(S(I)=C(N(C)C)N(C)C)c1 (stereo not given) | -0.5
CN(C)C(=O)N(C)N=O | 0.36
c1ccc(-n2cnnn2)cc1 | 1.09
Cn1c(CO)cnc1[N+](=O)[O-] | -0.35
C1=CC=CCC=C1 | 2.63
CNC1CC2CCC1c1ccccc12 (stereo not given) | 2.68
O=C(O)CCCCCc1ccccc1 | 3.27
CC(C)[C@H](C(=O)OC(C#N)c1cccc(Oc2ccccc2)c1)c1ccc(OC(F)F)cc1 (stereo not given in full) | 6.2
CN(C)C(N(C)C)=S(I)c1ccccc1 (stereo not given) | -0.68
NC(=O)CCCCc1ccncc1 | 0.42
CCS(=O)(=O)CCn1c([N+](=O)[O-])cnc1C | -0.35
CCn1nnc2ccccc21 | 1.58
Nc1ccc2ccccc2c1S(=O)(=O)O | -1.16
COC(=O)c1ccccc1C | 2.75
CNC(=O)Oc1ccccc1OC | 0.81
